Test results taken from patent publication US20250041379A1, “METHODS AND COMPOSITIONS FOR THE TREATMENT OF CANCER” (Vigeo Therapeutics, Inc., priority 2021, published 2025).
No end group written: not given here.

Experiments:
[1] = system: tumor microenvironment (TME) in pancreatic cancer; test: Modulation of the TME in paired tumor biopsies by multiplex ion beam image analysis, pancreatic cancer; type: in vivo, human; conditions: 8 pairs of pancreatic cancer biopsies from Parts 1 & 2
Method: FIG. 5A and FIG. 5B are charts showing that VT1021 modulates the TME in pancreatic cancer.
In the “expansion stage” of the VT1021-01 Study, subjects diagnosed with recurrent GBM, pancreatic cancer, ovarian cancer and other solid tumors were enrolled. They were treated with VT1021 at 11.8 mg/kg, twice weekly by IV infusion. The blood samples were collected from the clinical study at pre-treatment, 0, 2, 4, 6 hours post treatment to measure the levels of VT1021 (FIG. 2). The tumor biopsy samples prior to treatment and during treatment were collected from the clinical study to measure expression levels of biomarkers including CD36 and CD47, as well as cell surface markers for immune cell populations in the TME by immunohistochemistry assays (FIG. 3, FIG. 4, FIG. 5). The correlation between days on study and tumor shrinkage versus expression profile of CD36 and CD47 was analyzed (FIG. 4). The general expression profile of CD36 and CD47 has been assessed by IHC on Tumor Tissue Microarrays (TMAs), which contain biopsy samples collected from pancreatic cancer patients. TMAs were purchased from commercial sources, not related to the VT1021-01 clinical study.
FIG. 5A and FIG. 5 B are charts showing that VT1021 modulates the TME in pancreatic cancer. Modulation of the TME by VT1021 in paired biopsies from subjects with pancreatic cancer was assessed by multiplex ion beam image analysis. Representative images from 1 of 3 regions of interest in tumor biopsies from a subject obtained pre-treatment (pre) and on-study (on). […] TSP-1+increased >2 fold in on-study biopsies compared to pre-treatment, both the CTL/Treg and M1/M2 macrophage ratios increased and the percent of M1 macrophages increased >3 fold in the TME after treatment with VT1021.

recurrent GBM (rGBM) = test: Phase I/II clinical study: clinical response and duration of treatment in recurrent GBM; type: in vivo, human
Method: VT1021 was evaluated in a recently completed phase I/II open-label, multicenter, dose escalation (Part 1) and expansion (Part 2) clinical study in advanced, refractory, solid tumors including recurrent GBM (rGBM) (NCT03364400). Thirty-two subjects with rGBM were dosed in Part 2, 22 of which were considered evaluable as having completed ≥1 cycle of VT1021 treatment and tumor imaging during cycle 2. […] The blood samples were collected from GBM subjects in the expansion phase, who were treated by VT1021 at 11.8 mg/kg, twice weekly, by IV infusion. VT1021 levels were measured and analyzed among male and female subjects (FIG. 7). Days on study have been collected from the same group of subjects (FIG. 8). […] CD36 and CD47 levels have been measured by immunohistochemistry assays in the pre-treatment tumor biopsy samples of the GBM subjects (FIG. 9, FIG. 10). Levels of Tsp-1 were measured by ELISA for circulating Tsp-1 levels in the collected blood samples, and by immunohistochemistry for the level of Tsp-1 accumulated in the tumor biopsy samples (FIG. 10). The infiltration of immune and inflammatory cells, specifically, MDSCs, T cells and macrophages, were determined by immunohistochemical analysis of the levels of cell surface markers in the tumor biopsy samples of subjects (FIG. 11). […] Among 22 evaluable rGBM subjects, 3 had complete response (CR), 1 had partial response (PR), and 7 had stable disease (SD) with an average study duration of over 203 days. The overall disease control rate (DCR) was 50%. […] Of the 11 CR/PR/SDs, 6 were dual high (55%). […] Complete response scan images and lesion shrinkage for 1 of 3 subjects who achieved CR.

TSP-1 = test: Immunohistochemistry and pathological examination of pre-treatment and on-study rGBM tumor biopsy; type: in vivo, human; conditions: subject with rGBM who achieved CR
Description: FIG. 10 is a chart showing that VT1021 induces TSP-1 in the circulation and the TME. (A) Bar graph of Tsp-1 protein levels measured by ELISA in circulating MDSCs collected prior to (baseline) and after (induction) treatment with VT1021 from patients who experienced complete or partial response, stable disease, or progressive disease; (B) H&E and immunohistochemical analysis of patient tumor tissue prior to onset (pre) or during treatment with VT1021; (C) Immunohistochemical analysis depicting representative images of high levels of CD36 and CD47.
The blood samples were collected from GBM subjects in the expansion phase, who were treated by VT1021 at 11.8 mg/kg, twice weekly, by IV infusion. VT1021 levels were measured and analyzed among male and female subjects (FIG. 7). […] CD36 and CD47 levels have been measured by immunohistochemistry assays in the pre-treatment tumor biopsy samples of the GBM subjects (FIG. 9, FIG. 10). Levels of Tsp-1 were measured by ELISA for circulating Tsp-1 levels in the collected blood samples, and by immunohistochemistry for the level of Tsp-1 accumulated in the tumor biopsy samples (FIG. 10). The infiltration of immune and inflammatory cells, specifically, MDSCs, T cells and macrophages, were determined by immunohistochemical analysis of the levels of cell surface markers in the tumor biopsy samples of subjects (FIG. 11).

[2] = system: circulating immune cells (CTLs, helper T cells, MDSCs); test: Flow cytometry of immune cells isolated from whole blood of rGBM subjects; type: in vivo, human; conditions: Cycle 1 Day 1
Description: FIG. 11A, FIG. 11B, FIG. 11C, FIG. 11D, FIG. 11E, and FIG. 11F are charts showing modulation of the immune system by VT1021 in circulation and in the TME. […] Proliferating CTLs increased ≥1.5 fold regardless of clinical response, proliferating helper T cells increased ≥1.5 fold in CR/PR and PD subjects while monocytic MDSCs (mMDSCs) and activated MDSCs decreased≤0.5 fold in all evaluable subjects. […] Percent of M1 increased 1.9-fold while M2 decreased 0.6-fold after treatment. […] CTLs increased >4 fold while total and mMDSCs […] >15 fold in the on-study biopsy compared to pre-treatment.

[3] = system: animal models of ovarian, pancreatic, and breast cancer; test: Preclinical studies in animal models of cancer; type: in vivo; conditions: multiple animal models of ovarian
[4] = among 22 evaluable rGBM subjects
[5] = among the 9 CD36/CD47 dual-high rGBM subjects
[6] = the 9 CD36/CD47 dual-high rGBM subjects
[7] = whole blood before and after 6 hours, all evaluable subjects, decreased

Substance: cyclic DWLPK (also: cyclic, mode of cyclisation not given here) [VT1021, 5-amino acid cyclic peptide from prosaposin; Tsp-1-inducing agent]
- CTL/Treg ratio in the TME after treatment [1]: increased
- M1/M2 macrophage ratio in the TME after treatment [1]: increased
- TSP-1+ mean intensity, increase on-study vs pre-treatment [1]: > 2 fold
- percent of M1 macrophages, increase in the TME after treatment [1]: > 3 fold
- treatment until lesion no longer measurable (recurrent GBM (rGBM); 1 CR rGBM subject, MRI lesion measurement): 9 cycles
- time on study (recurrent GBM (rGBM); 1 CR rGBM subject, still on-going): 476 days
- overall disease control rate (DCR) (recurrent GBM (rGBM); 22 evaluable rGBM subjects): 50%
- subjects with complete response (CR) (recurrent GBM (rGBM); [4]): 3
- subjects with partial response (PR) (recurrent GBM (rGBM); [4]): 1
- subjects achieving CR (recurrent GBM (rGBM); [5]): 3
- subjects achieving SD (recurrent GBM (rGBM); [5]): 3 subjects
- average study duration (recurrent GBM (rGBM); rGBM subjects with CR, PR or SD): over 203 days
- DCR (recurrent GBM (rGBM); [6]): 67%
- overall response rate (recurrent GBM (rGBM); [6]): 33.3%
- TSP-1 in the on-study biopsy (TSP-1): TSP-1 induction
- tumor cells by pathological examination of the on-study biopsy (TSP-1): No tumor cells were detected
- Proliferating CTLs, fold change ([2]; whole blood before and after 6 hours of treatment, regardless of clinical response, increased): ≥ 1.5 fold
- proliferating helper T cells, fold change ([2]; whole blood before and after 6 hours, CR/PR and PD subjects, increased): ≥ 1.5 fold
- activated MDSCs, fold change [2, 7]: ≤ 0.5 fold
- monocytic MDSCs (mMDSCs), fold change [2, 7]: ≤ 0.5 fold
- anti-tumor activity [3]: robust anti-tumor activity
